Assay results: patent US12448367B2, “Phthalazine derivatives as pyruvate kinase modulators” (Sitryx Therapeutics Limited, priority 2022, dated 2025)
pEC50: −log10 of the molar value. Values joined by “and” are separate entries in the source; they are usually repeats but may differ in a detail not shown here. Identical values can stand only once.

Key:
recombinant human PKLR = molecular target: T1, recombinant human PKLR (Homo sapiens, UniProt P30613); test: Human PKLR activation assay (Kinase-Glo Plus luminescence, ATP generated); type: biochemical; settings: * = repeat experiments; for pEC50: activation of N-terminal His-tagged hPKLR, 4-parameter logistic fit; for Emax: read-out: hPKLR Emax
T1 construct: His (N); purchased R&D Systems
T1 sequence (P30613 whole entry): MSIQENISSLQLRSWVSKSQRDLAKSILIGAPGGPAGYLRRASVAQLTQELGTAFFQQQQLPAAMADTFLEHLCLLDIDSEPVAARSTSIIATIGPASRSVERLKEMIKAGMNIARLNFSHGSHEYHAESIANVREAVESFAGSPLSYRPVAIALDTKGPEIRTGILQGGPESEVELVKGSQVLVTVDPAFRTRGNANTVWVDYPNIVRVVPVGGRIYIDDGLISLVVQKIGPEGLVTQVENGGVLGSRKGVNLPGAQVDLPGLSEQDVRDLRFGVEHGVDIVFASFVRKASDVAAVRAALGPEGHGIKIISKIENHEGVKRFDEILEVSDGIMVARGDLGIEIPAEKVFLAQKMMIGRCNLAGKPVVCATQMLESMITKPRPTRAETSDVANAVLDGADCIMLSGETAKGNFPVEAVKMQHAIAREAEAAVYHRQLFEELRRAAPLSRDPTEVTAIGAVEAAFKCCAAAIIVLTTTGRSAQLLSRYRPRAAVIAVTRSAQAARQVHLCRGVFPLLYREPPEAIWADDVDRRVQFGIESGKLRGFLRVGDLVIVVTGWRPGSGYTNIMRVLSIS
Description: Biological Example 2—Human PKLR Activation Assay
Measuring In Vitro Activation of Recombinant Human PKLR
(§1) Compound activation of recombinant human PKLR pyruvate kinase activity was determined by biochemical assay. N-terminal His-tagged enzyme was sourced from R&D Systems and its substrates phosphoenolpyruvate (PEP) and ADP from Sigma-Aldrich and 2Bscientific Ltd, respectively. The Kinase-Glo® Plus luminescence assay was from Promega. All other reagents were from Sigma-Aldrich. Test Compounds were prepared as 10 mM DMSO stocks and dilution series prepared in DMSO for direct dilution into Assay Buffer comprising 50 mM imidazole, 50 mM KCl, 7 mM MgCl2, 0.01% Tween20, 0.05% BSA (pH 7.2).
Human PKLR was diluted into Assay Buffer to a final concentration of 5 μM. Enzyme-Assay Buffer mix was dispensed into 384-well shallow-well white-walled plates and Test Compounds added by acoustic dispense (Echo®, Labcyte Inc). Following 10 minutes' incubation at room temperature, the enzyme reaction was initiated by acoustic dispensing of ADP+PEP substrate to final concentrations of 254 μM ADP and 53 μM […].
(§2) After 60 minutes' incubation on an orbital shaker (300 rpm, 26° C.), enzyme activity was quantified by the luminescent detection of generated ATP. Kinase-Glo® Plus reagent was added to each well and the plates incubated for a further 15 minutes on an orbital shaker in the dark (300 rpm, 26° C.) before luminescence measurement on a plate reader (PHERAstar® FSX, BMG Labtech).
(§3) Percentage activation was calculated by normalising […] signals to plate LOW (DMSO vehicle) and HIGH (5 μM TEPP-46) controls. EC50 and Emax values were determined from 4-parameter logistic fits of compound concentration-response curves.

[1] = molecular target: T2, pyruvate kinase in human CD4+ T cell lysates (Homo sapiens, UniProt P14618); test: CD4+ T cell pyruvate kinase assay (PK activity in lysates of compound-treated cells); type: cell-based; settings: primary human CD4+ T cells incubated with compound 20 minutes, washed, lysed; ΔAbsorbance OD570 nm
T2 construct: endogenous in cells; host or cells: primary human CD4+ T cells
T2 sequence (P14618 2-531 limits assumed): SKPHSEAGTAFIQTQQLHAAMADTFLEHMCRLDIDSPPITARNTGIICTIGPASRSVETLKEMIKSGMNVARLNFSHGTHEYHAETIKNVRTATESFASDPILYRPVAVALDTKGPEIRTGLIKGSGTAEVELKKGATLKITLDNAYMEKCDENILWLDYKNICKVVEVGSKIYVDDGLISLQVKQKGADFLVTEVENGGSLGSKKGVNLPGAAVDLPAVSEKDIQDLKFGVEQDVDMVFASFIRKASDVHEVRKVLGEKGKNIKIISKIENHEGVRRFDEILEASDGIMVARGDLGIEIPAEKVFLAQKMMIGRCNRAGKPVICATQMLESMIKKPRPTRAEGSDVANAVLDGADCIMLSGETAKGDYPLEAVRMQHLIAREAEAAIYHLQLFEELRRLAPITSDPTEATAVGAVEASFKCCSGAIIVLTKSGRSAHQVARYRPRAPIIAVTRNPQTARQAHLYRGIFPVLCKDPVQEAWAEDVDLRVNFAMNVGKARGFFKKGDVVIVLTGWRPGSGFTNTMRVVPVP
Description: Measuring Pyruvate Kinase (PK) Activity in Human CD4+ T Cell Lysates
Compound activation of pyruvate kinase in human CD4+ T cell lysates was determined by biochemical assay. Primary CD4+ T cells were used rather than cancer cell lines to improve the disease relevance of the assay. The PK assay was sourced from Abcam. All other reagents were sourced from ThermoFisher. Test compounds were prepared as 10 mM DMSO stocks and dilution series prepared in DMSO for addition to intact CD4+ T cells cultured in RPMI media containing 10% FBS.
Human CD4+ T cells were incubated with compound for 20 minutes and then washed twice in 1×PBS before resuspension in Abcam PK lysis buffer to prepare cell lysates. 10 μl PK assay Reaction Mix was added per well, including OXIRED™ PROBE. The plates were read using a BMG Labtech Pherastar plate reader at OD570 nm in kinetic mode for […] (25 cycles of 2 minutes) at 25° C., protecting from light.
Plates were blank-subtracted and ΔAbsorbance calculated by subtracting the first plate read within the linear range from the plate read at the timepoint of interest. PK activity is expressed as ΔAbsorbance and plotted against log [Compound].

recombinant human PKM2 = molecular target: T3, recombinant human PKM2 (Homo sapiens, UniProt P14618); test: Human PKM2 activation assay (Kinase-Glo Plus luminescence, ATP generated); type: biochemical; settings: * = repeat experiments; for pEC50: activation of N-terminal His-tagged hPKM2, 4-parameter logistic fit; for Emax: read-out: hPKM2 Emax
T3 construct: His (N); purchased R&D Systems
T3 sequence (P14618 whole entry): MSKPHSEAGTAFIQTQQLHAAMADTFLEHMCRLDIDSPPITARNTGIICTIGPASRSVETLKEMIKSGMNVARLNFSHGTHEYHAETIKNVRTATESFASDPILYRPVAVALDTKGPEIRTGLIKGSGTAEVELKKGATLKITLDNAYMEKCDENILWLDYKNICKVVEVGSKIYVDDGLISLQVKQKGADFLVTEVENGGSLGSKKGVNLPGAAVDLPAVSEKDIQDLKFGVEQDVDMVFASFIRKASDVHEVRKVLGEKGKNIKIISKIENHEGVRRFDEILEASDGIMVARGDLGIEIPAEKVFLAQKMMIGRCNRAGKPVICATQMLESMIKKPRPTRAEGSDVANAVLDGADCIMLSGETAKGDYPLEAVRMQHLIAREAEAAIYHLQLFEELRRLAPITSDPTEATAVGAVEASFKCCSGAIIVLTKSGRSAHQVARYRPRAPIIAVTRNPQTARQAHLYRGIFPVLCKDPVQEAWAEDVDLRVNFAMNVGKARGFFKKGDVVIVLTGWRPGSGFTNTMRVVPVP
Description: Measuring In Vitro Activation of Recombinant Human PKM2
as §1, with “PKM2” for “PKLR”, “hPKM2” for “enzyme”
Human PKM2 was diluted into Assay Buffer comprising 50 mM imidazole, 50 mM KCl, 7 mM MgCl2, 0.01% Tween20, 0.05% BSA (pH 7.2) to a final concentration of […]. Enzyme-Assay Buffer mix was dispensed into a 384-well shallow-well white-walled plate (PerkinElmer) and Test Compounds added by acoustic dispense (Echo®, Labcyte Inc.).
as §2, §3

[2] = percentage activation normalised to DMSO (LOW) and 5 μM TEPP-46 (HIGH)

| Structure (SMILES) | pEC50 (recombinant human PKLR) | Emax (recombinant human PKLR; [2]) [%] | pEC50 [1] | pEC50 (recombinant human PKM2) | Emax (recombinant human PKM2; [2]) [%] | hPKLR Emax (recombinant human PKLR; [2]) | hPKM2 Emax (recombinant human PKM2; [2]) |
| --- | --- | --- | --- | --- | --- | --- | --- |
| O=c1c2ccc(S(=O)(=O)c3cnn(CCO)c3)cc2cnn1Cc1ccc2c(n1)CCO2 [Example 3, 2-((2,3-dihydrofuro[3,2-b]pyridin-5-yl)methyl)-6-((1-(2-hydroxyethyl)-1H-pyrazol-4-yl)sulfonyl)phthalazin-1(2H)-one] | 8.18 | 118 | 7.15 | 7.30 | 108 |  |  |
| O=c1c2ccc(S(=O)(=O)c3cnn(C(F)F)c3)cc2cnn1Cc1cc[nH]n1 [Example 2, 2-((1H-pyrazol-3-yl)methyl)-6-((1-(difluoromethyl)-1H-pyrazol-4-yl)sulfonyl)phthalazin-1(2H)-one] | 7.48 | 123 | 6.77 | 6.98 | 100 |  |  |
| Cc1[nH]nc(Cn2ncc3cc(S(=O)(=O)c4cc[nH]n4)ccc3c2=O)c1Cl [Example 6, 6-((1H-pyrazol-3-yl)sulfonyl)-2-((4-chloro-5-methyl-1H-pyrazol-3-yl)methyl)phthalazin-1(2H)-one] |  |  | 7.03 | 7.37 | 94 |  |  |
| O=c1c2ccc(S(=O)(=O)c3cn[nH]c3)cc2cnn1Cc1cc2n(n1)CCO2 [Example 4, 6-((1H-pyrazol-4-yl)sulfonyl)-2-((2,3-dihydropyrazolo[5,1-b]oxazol-6-yl)methyl)phthalazin-1(2H)-one] | 8.19 | 122 | 6.90 | 7.29 | 91 |  |  |
| Cn1cc(S(=O)(=O)c2ccc3c(=O)n(Cc4cc5n(n4)CCO5)ncc3c2)cn1 [Example 5, 2-((2,3-dihydropyrazolo[5,1-b]oxazol-6-yl)methyl)-6-((1-methyl-1H-pyrazol-4-yl)sulfonyl)phthalazin-1(2H)-one] | 7.63 and 7.56 | 121 | 7.03 | 7.00 and 6.68 | 110 | 128* % | 104* % |
| COc1ccc(Cn2ncc3cc(S(=O)(=O)c4cn[nH]c4)ccc3c2=O)nc1 [Example 1, 6-((1H-pyrazol-4-yl)sulfonyl)-2-((5-methoxypyridin-2-yl)methyl)phthalazin-1(2H)-one] | 7.80 | 119 | 7.01 | 6.94 | 111 |  |  |
